Source: patent US20040086901A1, “Database for analyzing gene function and method of analyzing gene function by dspa” (priority 2000, published 2004)
Non-standard residues stand in square brackets, D forms with d. Residues, ends and D or L forms follow the SMILES beside them. Nle = CCCC[C@H](N)C(=O)O

Experiments:
Type in all cases: cell-based, mouse
[1] = system: NIH3T3 cells overexpressing Cip-1; assay: MTT cell viability, Cip-1 overexpressing cells vs parental line; conditions: Cip-1 high-expressing cells / parental cell line, 3 to 4 days
Description: (§1) With regard to the function-known genes, the genes shown in the left column of Table 2 were used. With regard to the drugs, those shown in Table 1 were dissolved in DMSO to an extent of 100-fold of the maximum concentration for the search of the drugs and used. With regard to the cells, incubated NIH3T3 or ras-NIH3T3 cells were used.
(§2) Full-length cDNA of each function-known genes was incorporated into an expression vector (pRc-CMV, etc.) and transfected into NIH3T3 cells by a common method. Transformed cells were isolated using the resistance to G-418 as an index and the expression of the transfected gene in each cell was investigated by Western blotting method to select a highly expressing line.
(§3) Cell viabilities were measured according to the following procedures.
(§4) 1) From the 2nd to the 11th rows of a 96-well plate were filled with DMEM (50 μl). The 12th row was filled with 100 μl of DMEM.
(§5) 2) The 1st row was filled with 98 μl of DMEM.
(§6) 3) Drugs (2 μl each) were added into the 1st row.
(§7) 4) Continuous double-dilution was conducted from the 1st to the 9th rows. Fifty μl were taken out from the 9th row and discarded. The plate was preserved in a CO2 incubator.
(§8) 5) Cells (each high-expressing cells and the parental cell line) were detached from the medium using a trypsin solution, suspended in 10% CS-DMEM and transferred to a test tube and cell numbers (cell/ml) were counted.
(§9) 6) The cells were diluted to a concentration of 1×10^5 cells/ml, and 50 μl of the cell suspension were added to the 1st to the 11th rows of the plate followed by gently stirring.
(§10) 7) The plate was transferred to the CO2 incubator and incubated for 3 to 4 days.
(§11) 8) MTT (5 mg/ml in PBS) (10 μl) was added to the 1st to the 12th rows of the plate and incubated in the CO2 incubator at 37° C. for 4 hours.
(§12) 9) A reaction stop solution (0.04N HCl in isopropanol) (150 μl) was added followed by mixing well and being allowed to stand at room temperature for about 2 hours.
(§13) 10) Coloration of formazan which was a metabolite of the MTT dye was measured using a microplate reader. The measurement wavelength was 574 nm and the reference wavelength was 655 nm. The 10th and the 11th rows of the plate were 100% controls and the 12th row was a 0% control.
(§14) As an index for the sensitivity of highly gene-expressing cells and the parental cell line to various drugs, each of the IC40 values thereof was specified and ratios of the IC40 values were calculated. […] After that, logarithmic values of ratios of IC40 values were calculated from each gene.

[2] = system: NIH3T3 cells overexpressing C/EBPa; assay: MTT cell viability, C/EBPa overexpressing cells vs parental line; conditions: C/EBPa high-expressing cells / parental cell line, 3 to 4 days
Description: as §1, §2, §3, §4, §5, §6, §7, §8, §9, §10, §11, §12, §13, §14

[3] = system: NIH3T3 cells overexpressing CaMKIIa-Active; assay: MTT cell viability, CaMKIIa-Active overexpressing cells vs parental line; conditions: CaMKIIa-Active high-expressing cells / parental cell line, 3 to 4 days
Description: as §1, §2, §3, §4, §5, §6, §7, §8, §9, §10, §11, §12, §13
As an index for the sensitivity of highly gene-expressing cells and the parental cell line to various drugs, each of the IC40 values thereof was specified and ratios of the IC40 values were calculated. FIG. 2 and FIG. 3 are the examples where ratios of IC40 values were calculated from a curve showing the dependency on the concentration of the chemical versus the viability. After that, logarithmic values of ratios of IC40 values were calculated from each gene.

[4] = system: NIH3T3 cells overexpressing Gluco-corticoid-R; assay: MTT cell viability, Gluco-corticoid-R overexpressing cells vs parental line; conditions: Gluco-corticoid-R high-expressing cells / parental cell line, 3 to 4 days
Description: as §1, §2, §3, §4, §5, §6, §7, §8, §9, §10, §11, §12, §13, §14

[5] = system: NIH3T3 cells overexpressing RhoA-DN; assay: MTT cell viability, RhoA-DN overexpressing cells vs parental line; conditions: RhoA-DN high-expressing cells / parental cell line, 3 to 4 days
Description: as §1, §2, §3, §4, §5, §6, §7, §8, §9, §10, §11, §12, §13, §14

[6] = system: NIH3T3 cells overexpressing p53(wt); assay: MTT cell viability, p53(wt) overexpressing cells vs parental line; conditions: p53(wt) high-expressing cells / parental cell line, 3 to 4 days
Description: as §1, §2, §3, §4, §5, §6, §7, §8, §9, §10, §11, §12, §13, §14

[7] = system: NIH3T3 cells overexpressing C/EBPb; assay: MTT cell viability, C/EBPb overexpressing cells vs parental line; conditions: C/EBPb high-expressing cells / parental cell line, 3 to 4 days
Description: as §1, §2, §3, §4, §5, §6, §7, §8, §9, §10, §11, §12, §13, §14

Molecule	logarithmic value of ratio of IC40 values [1]	logarithmic value of ratio of IC40 values [2]	logarithmic value of ratio of IC40 values [3]	logarithmic value of ratio of IC40 values [4]	logarithmic value of ratio of IC40 values [5]	logarithmic value of ratio of IC40 values [6]	logarithmic value of ratio of IC40 values [7]
Nc1nc2nc[nH]c2c(=S)[nH]1 [6-TG, 6-thioguanine]	0.47	0.00	0.62	0.09	0.41		
CNc1ccc2oc(C[C@H]3O[C@@]4(CC[C@H]3C)O[C@H]([C@H](C)C(=O)c3ccc[nH]3)[C@H](C)C[C@H]4C)nc2c1C(=O)O [A23187]	0.04	0.00	0.18	0.28	0.03	0.30	0.25
CCCC[C@@H](C=O)NC(=O)[C@H](CC(C)C)NC(=O)[C@H](CC(C)C)NC(C)=O [ALLN] (Ac-Leu-Leu-[Nle]-aldehyde)	0.18	0.00	0.20	0.12	0.00	0.18	0.31
CC(=O)OCOC(=O)CN(CC(=O)OCOC(C)=O)c1ccccc1OCCOc1ccccc1N(CC(=O)OCOC(C)=O)CC(=O)OCOC(C)=O [BAPTA-AM]	0.00	−0.62	0.18	0.10	0.09	0.00	0.81
C[C@@H]1C[C@@H]([C@H](O)CC2CC(=O)NC(=O)C2)C(=O)[C@@H](C)C1 [CHX, cycloheximide]	1.77	0.00	−0.09		0.22	0.85	0.37
O=CN/C=C/c1cc(O)ccc1O [Erbstatin, erbstatin]		0.11	0.21	0.06	−0.02	0.17	0.48
C=C[C@@]1(C)CC(=O)[C@]2(O)[C@@]3(C)[C@@H](O)CCC(C)(C)[C@@H]3[C@H](O)[C@H](OC(C)=O)[C@@]2(C)O1 [Forskolin, forskolin]		0.00	0.43	0.33	−0.36	0.98	0.93
CN(C)CCCn1cc(C2=C(c3c[nH]c4ccccc34)C(=O)NC2=O)c2ccccc21 [GF109203X]	0.30	0.00		0.27		0.62	
O=c1c(-c2ccc(O)cc2)coc2cc(O)cc(O)c12 [Genistein, genistein]		−0.43	0.23	0.02	0.00	0.26	0.19
CO[C@H]1[C@@H](OC)C[C@H](C)[C@@H](OC)C2=CC(=O)C=C(NC(=O)/C(C)=C/C=C\[C@H](OC)[C@@H](OC(N)=O)/C(C)=C/[C@@H]1C)C2=O [HMA, herbimycin A]	−0.30	0.00	0.51	−0.11	−0.10	−0.22	0.45
COC(=O)[C@@]1(O)C[C@H]2O[C@]1(C)n1c3ccccc3c3c4c(c5c6ccccc6n2c5c31)C(=O)NC4 [K252a]		−0.48	0.10	0.13	0.28	0.05	0.25
CCCC[C@@H](C)/C=C(C)/C=C(\C)C(=O)NC1=C[C@@](O)(/C=C/C=C/C=C/C(=O)NC2=C(O)CCC2=O)[C@@H]2O[C@@H]2C1=O [Manumycin, manumycin]	0.12	0.00	0.03	0.09	−0.13	0.12	0.47
O=[As]O [NaAsO2, sodium arsenite]	0.30	−0.40	0.02	0.16	0.00	0.20	0.41
C[C@@H]1O[C@@H](O[C@H]2C[C@@H](O)[C@]3(CO)[C@H]4[C@H](O)C[C@]5(C)[C@@H](C6=CC(=O)OC6)CC[C@]5(O)[C@@H]4CC[C@]3(O)C2)[C@H](O)[C@H](O)[C@H]1O [Ouabain, ouabain]	0.16	0.00	0.60	0.04	0.45		0.00
CN[C@@H]1C[C@H]2O[C@@](C)([C@@H]1OC)n1c3ccccc3c3c4c(c5c6ccccc6n2c5c31)C(=O)NC4 [Staurosporine]			−0.04	−0.28	0.14	0.07	−0.23
COC[C@H]1OC(=O)c2coc3c2[C@@]1(C)C1=C(C3=O)[C@@H]2CCC(=O)[C@@]2(C)C[C@H]1OC(C)=O [Wortmannin, wortmannin]		0.00	0.18	0.09	0.00	0.40	0.34
C=C[C@]1(C)CC[C@@H](C(=C)C)C[C@H]1C(=C)C [b-elemene, β-elemene]	0.00	0.00		0.00		0.00	0.50
CC(C)(C)C(=O)Oc1ccc(S(=O)(=O)Nc2ccccc2C(=O)NCC(=O)O)cc1 [compound 5046]	−0.14		0.35				0.17
sodium vanadate	0.00	−0.02	0.01	0.03	−0.12	0.00	
